Experimental data from ChEMBL document CHEMBL3885861, “Open TG-GATES”.

Organism: Rattus norvegicus
Assay: Open TG-GATES - Regimen: Single
Type: toxicity, organism-based, Sprague-Dawley
Set-up: regimen Single, gender Male, age 6 weeks
Settings: in vivo, po, 1000 mg/kg, route gavage, dose level Middle; for APTT / Bas / Eos / Fbg / Hb / Ht / Lym / MCH / MCHC / MCV / Mono / Neu / PT / Plat / RBC / Ret / WBC: tissue Blood; for KIDNEY_L / KIDNEY_R / KIDNEY_TOTAL: tissue Kidney; for LIVER: tissue Liver; for A/G / ALP / ALT / AST / BUN / CRE / Ca / Cl / DBIL / GLC / IP / K / LDH / Na / PL / RALB / TBIL / TC / TG / TP / gamma-GTP: tissue Plasma

SMILES: CCOc1ccc(NC(=O)CC(C)O)cc1 (configuration not stated) [BUCETIN]
- TERMINAL_BW (3 h): 211.2 g
- APTT (3 h): 14.7 s
- Bas (3 h): 0%
- Eos (3 h): 1%
- Fbg (3 h): 303 mg/dL
- Hb (3 h): 13 g/dL
- Ht (3 h): 38.6%
- Lym (3 h): 78.4%
- MCH (3 h): 20.6 pg
- MCHC (3 h): 33.7%
- MCV (3 h): 61.2 fL
- Mono (3 h): 2%
- Neu (3 h): 18.2%
- PT (3 h): 13.5 s
- Plat (3 h): 123 x10_4/uL
- RBC (3 h): 630.8 x10_4/ul
- Ret (3 h): 7.9%
- WBC (3 h): 70.9 x10_2/uL
- KIDNEY_L (3 h): 0.9 g
- KIDNEY_R (3 h): 1 g
- KIDNEY_TOTAL (3 h): 1.9 g
- LIVER (3 h): 9.1 g
- A/G (3 h): 0.9
- ALP (3 h): 1363.2 IU/L
- ALT (3 h): 33 IU/L
- AST (3 h): 65.6 IU/L
- BUN (3 h): 8.4 mg/dL
- CRE (3 h): 0.1 mg/dL
- Ca (3 h): 10.5 mg/dL
- Cl (3 h): 104.6 meq/L
- DBIL (3 h): 0.03 mg/dL
- GLC (3 h): 182.2 mg/dL
- IP (3 h): 9.1 mg/dL
- K (3 h): 4.2 meq/L
- LDH (3 h): 66.6 IU/L
- Na (3 h): 141.4 meq/L
- PL (3 h): 137.4 mg/dL
- RALB (3 h): 2.5 g/dL
- TBIL (3 h): 0.05 mg/dL
- TC (3 h): 73.6 mg/dL
- TG (3 h): 51.6 mg/dL
- TP (3 h): 5.2 g/dL
- gamma-GTP (3 h): 1.4 IU/L
- TERMINAL_BW (6 h): 208.9 g
- APTT (6 h): 19.8 s
- Bas (6 h): 0%
- Eos (6 h): 1%
- Fbg (6 h): 317 mg/dL
- Hb (6 h): 13.3 g/dL
- Ht (6 h): 39.5%
- Lym (6 h): 77%
- MCH (6 h): 20.9 pg
- MCHC (6 h): 33.6%
- MCV (6 h): 62.1 fL
- Mono (6 h): 2.6%
- Neu (6 h): 19%
- PT (6 h): 13.7 s
- Plat (6 h): 118.7 x10_4/uL
- RBC (6 h): 636.6 x10_4/ul
- Ret (6 h): 7.8%
- WBC (6 h): 61.8 x10_2/uL
- KIDNEY_L (6 h): 0.9 g
- KIDNEY_R (6 h): 0.9 g
- KIDNEY_TOTAL (6 h): 1.8 g
- LIVER (6 h): 8.3 g
- A/G (6 h): 0.9
- ALP (6 h): 1231.6 IU/L
- ALT (6 h): 29 IU/L
- AST (6 h): 64.4 IU/L
- BUN (6 h): 8.6 mg/dL
- CRE (6 h): 0.2 mg/dL
- Ca (6 h): 10.7 mg/dL
- Cl (6 h): 105.4 meq/L
- DBIL (6 h): 0.036 mg/dL
- GLC (6 h): 186.8 mg/dL
- IP (6 h): 10.3 mg/dL
- K (6 h): 4.2 meq/L
- LDH (6 h): 57.8 IU/L
- Na (6 h): 142 meq/L
- PL (6 h): 139 mg/dL
- RALB (6 h): 2.6 g/dL
- TBIL (6 h): 0.062 mg/dL
- TC (6 h): 82.2 mg/dL
- TG (6 h): 28.4 mg/dL
- TP (6 h): 5.5 g/dL
- gamma-GTP (6 h): 1 IU/L
- TERMINAL_BW (9 h): 204.6 g
- APTT (9 h): 16.1 s
- Bas (9 h): 0%
- Eos (9 h): 0.6%
- Fbg (9 h): 311.6 mg/dL
- Hb (9 h): 13.6 g/dL
- Ht (9 h): 40.3%
- Lym (9 h): 78.8%
- MCH (9 h): 21.1 pg
- MCHC (9 h): 33.8%
- MCV (9 h): 62.4 fL
- Mono (9 h): 2.2%
- Neu (9 h): 17.8%
- PT (9 h): 14.2 s
- Plat (9 h): 125.3 x10_4/uL
- RBC (9 h): 646.4 x10_4/ul
- Ret (9 h): 8.3%
- WBC (9 h): 48.8 x10_2/uL
- KIDNEY_L (9 h): 0.9 g
- KIDNEY_R (9 h): 0.9 g
- KIDNEY_TOTAL (9 h): 1.8 g
- LIVER (9 h): 8.2 g
- A/G (9 h): 0.9
- ALP (9 h): 1308.4 IU/L
- ALT (9 h): 29.6 IU/L
- AST (9 h): 62.6 IU/L
- BUN (9 h): 7.6 mg/dL
- CRE (9 h): 0.1 mg/dL
- Ca (9 h): 10.6 mg/dL
- Cl (9 h): 106 meq/L
- DBIL (9 h): 0.04 mg/dL
- GLC (9 h): 196.6 mg/dL
- IP (9 h): 9.8 mg/dL
- K (9 h): 4 meq/L
- LDH (9 h): 56.2 IU/L
- Na (9 h): 142.4 meq/L
- PL (9 h): 130.6 mg/dL
- RALB (9 h): 2.6 g/dL
- TBIL (9 h): 0.054 mg/dL
- TC (9 h): 71.6 mg/dL
- TG (9 h): 26.2 mg/dL
- TP (9 h): 5.5 g/dL
- gamma-GTP (9 h): 1 IU/L
- TERMINAL_BW (24 h): 208.1 g
- APTT (24 h): 23.5 s
- Bas (24 h): 0%
- Eos (24 h): 1%
- Fbg (24 h): 268.6 mg/dL
- Hb (24 h): 13.4 g/dL
- Ht (24 h): 40.5%
- Lym (24 h): 77.6%
- MCH (24 h): 20.7 pg
- MCHC (24 h): 33.2%
- MCV (24 h): 62.3 fL
- Mono (24 h): 3%
- Neu (24 h): 18%
- PT (24 h): 15.1 s
- Plat (24 h): 125 x10_4/uL
- RBC (24 h): 650.2 x10_4/ul
- Ret (24 h): 7.5%
- WBC (24 h): 77.3 x10_2/uL
- KIDNEY_L (24 h): 1 g
- KIDNEY_R (24 h): 1 g
- KIDNEY_TOTAL (24 h): 1.9 g
- LIVER (24 h): 8.9 g
- A/G (24 h): 0.9
- ALP (24 h): 1549 IU/L
- ALT (24 h): 48 IU/L
- AST (24 h): 92.2 IU/L
- BUN (24 h): 16 mg/dL
- CRE (24 h): 0.2 mg/dL
- Ca (24 h): 10.8 mg/dL
- Cl (24 h): 106.8 meq/L
- DBIL (24 h): 0.03 mg/dL
- GLC (24 h): 169.6 mg/dL
- IP (24 h): 8.1 mg/dL
- K (24 h): 4.2 meq/L
- LDH (24 h): 93.8 IU/L
- Na (24 h): 144.2 meq/L
- PL (24 h): 154 mg/dL
- RALB (24 h): 2.6 g/dL
- TBIL (24 h): 0.07 mg/dL
- TC (24 h): 86.4 mg/dL
- TG (24 h): 66.2 mg/dL
- TP (24 h): 5.6 g/dL
- gamma-GTP (24 h): 1 IU/L
